Our source for the Kd values is ChEMBL document CHEMBL3991601, “The target landscape of clinical kinase drugs” (Science, 2017).

Assay [1] has as its target T1, Acyl-CoA dehydrogenase family member 11 (Homo sapiens, UniProt Q709F0).
T1 sequence (Q709F0 whole entry): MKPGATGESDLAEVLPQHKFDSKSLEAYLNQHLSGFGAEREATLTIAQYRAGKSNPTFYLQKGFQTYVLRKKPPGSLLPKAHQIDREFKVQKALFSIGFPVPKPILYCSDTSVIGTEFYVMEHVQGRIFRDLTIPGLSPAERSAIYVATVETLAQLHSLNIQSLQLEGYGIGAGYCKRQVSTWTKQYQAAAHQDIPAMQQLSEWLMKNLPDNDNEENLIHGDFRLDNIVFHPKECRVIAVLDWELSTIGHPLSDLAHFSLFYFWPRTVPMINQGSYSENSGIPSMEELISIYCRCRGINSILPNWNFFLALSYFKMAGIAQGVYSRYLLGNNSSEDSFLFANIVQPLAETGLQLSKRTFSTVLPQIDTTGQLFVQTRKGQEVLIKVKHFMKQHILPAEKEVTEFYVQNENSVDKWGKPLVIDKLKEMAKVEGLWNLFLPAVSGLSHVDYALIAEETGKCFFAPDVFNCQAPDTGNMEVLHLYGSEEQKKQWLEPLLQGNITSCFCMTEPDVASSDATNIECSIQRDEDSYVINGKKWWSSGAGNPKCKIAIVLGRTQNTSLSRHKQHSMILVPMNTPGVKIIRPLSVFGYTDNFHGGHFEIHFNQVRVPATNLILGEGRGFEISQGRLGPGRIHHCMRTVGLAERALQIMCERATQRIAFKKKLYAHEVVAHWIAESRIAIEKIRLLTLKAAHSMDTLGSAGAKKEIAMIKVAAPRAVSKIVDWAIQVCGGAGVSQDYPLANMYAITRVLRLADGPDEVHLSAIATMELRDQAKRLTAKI

For another assay, the target named is T2, Activin receptor type-1B (Homo sapiens, UniProt P36896).
T2 sequence (P36896 whole entry): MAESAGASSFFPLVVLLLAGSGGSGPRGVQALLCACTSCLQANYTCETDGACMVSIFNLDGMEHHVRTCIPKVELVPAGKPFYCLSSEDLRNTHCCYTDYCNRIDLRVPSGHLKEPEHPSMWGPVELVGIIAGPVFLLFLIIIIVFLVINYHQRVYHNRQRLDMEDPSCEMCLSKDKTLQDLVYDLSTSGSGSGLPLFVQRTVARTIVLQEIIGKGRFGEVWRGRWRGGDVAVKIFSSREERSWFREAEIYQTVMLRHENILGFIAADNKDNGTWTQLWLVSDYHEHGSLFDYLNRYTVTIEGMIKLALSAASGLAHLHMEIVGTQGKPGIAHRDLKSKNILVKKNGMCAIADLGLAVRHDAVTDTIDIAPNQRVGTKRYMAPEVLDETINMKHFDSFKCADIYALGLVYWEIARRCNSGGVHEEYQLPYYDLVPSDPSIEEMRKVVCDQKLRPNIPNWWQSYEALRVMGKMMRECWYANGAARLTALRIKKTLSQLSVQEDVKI

Assay [2] has as its target Bone morphogenetic protein receptor type-1B (Homo sapiens, UniProt O00238).
For assay [3], the target named is Serine/threonine-protein kinase MRCK alpha (Homo sapiens, UniProt Q5VT25).
In assay [4] the target is Cyclin-dependent kinase 3 (Homo sapiens, UniProt Q00526).
Cyclin-dependent kinase 3, sequence (Q00526 whole entry): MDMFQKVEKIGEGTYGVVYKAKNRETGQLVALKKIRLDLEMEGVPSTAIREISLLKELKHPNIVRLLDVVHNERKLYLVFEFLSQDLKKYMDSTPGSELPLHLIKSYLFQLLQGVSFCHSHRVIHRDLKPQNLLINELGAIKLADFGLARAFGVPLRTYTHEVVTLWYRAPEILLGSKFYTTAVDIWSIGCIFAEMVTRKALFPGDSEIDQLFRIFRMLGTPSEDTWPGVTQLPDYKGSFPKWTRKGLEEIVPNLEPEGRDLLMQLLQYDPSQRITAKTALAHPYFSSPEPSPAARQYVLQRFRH
Assay [5] has as its target Cyclin-dependent kinase 7 (Homo sapiens, UniProt P50613).
Assay [6] addresses Casein kinase I isoform gamma-1 (Homo sapiens, UniProt Q9HCP0).
Assay [7] has as its target Epithelial discoidin domain-containing receptor 1 (Homo sapiens, UniProt Q08345).
Assay [8] addresses T3, Interleukin-1 receptor-associated kinase 3 (Homo sapiens, UniProt Q9Y616).
T3 sequence (Q9Y616 whole entry): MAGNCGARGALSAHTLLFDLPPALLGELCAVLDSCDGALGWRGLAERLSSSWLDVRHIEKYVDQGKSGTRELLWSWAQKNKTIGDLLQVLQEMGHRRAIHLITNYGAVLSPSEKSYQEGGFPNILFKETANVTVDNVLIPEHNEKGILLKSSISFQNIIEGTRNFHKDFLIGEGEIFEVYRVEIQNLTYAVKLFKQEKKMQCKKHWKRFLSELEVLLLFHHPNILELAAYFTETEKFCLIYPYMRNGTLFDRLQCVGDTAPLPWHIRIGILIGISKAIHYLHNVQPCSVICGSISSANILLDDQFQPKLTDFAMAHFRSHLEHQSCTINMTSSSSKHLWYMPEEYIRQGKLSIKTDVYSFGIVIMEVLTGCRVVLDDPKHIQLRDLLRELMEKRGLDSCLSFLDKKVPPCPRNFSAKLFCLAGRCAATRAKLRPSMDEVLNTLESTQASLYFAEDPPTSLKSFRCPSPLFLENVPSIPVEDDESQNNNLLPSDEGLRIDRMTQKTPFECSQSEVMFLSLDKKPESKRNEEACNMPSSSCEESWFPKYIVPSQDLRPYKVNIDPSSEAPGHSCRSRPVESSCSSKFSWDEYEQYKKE

The target of the next assay is LIM domain kinase 1 (Homo sapiens, UniProt P53667).
LIM domain kinase 1, sequence (P53667 whole entry, the tested form may be a part): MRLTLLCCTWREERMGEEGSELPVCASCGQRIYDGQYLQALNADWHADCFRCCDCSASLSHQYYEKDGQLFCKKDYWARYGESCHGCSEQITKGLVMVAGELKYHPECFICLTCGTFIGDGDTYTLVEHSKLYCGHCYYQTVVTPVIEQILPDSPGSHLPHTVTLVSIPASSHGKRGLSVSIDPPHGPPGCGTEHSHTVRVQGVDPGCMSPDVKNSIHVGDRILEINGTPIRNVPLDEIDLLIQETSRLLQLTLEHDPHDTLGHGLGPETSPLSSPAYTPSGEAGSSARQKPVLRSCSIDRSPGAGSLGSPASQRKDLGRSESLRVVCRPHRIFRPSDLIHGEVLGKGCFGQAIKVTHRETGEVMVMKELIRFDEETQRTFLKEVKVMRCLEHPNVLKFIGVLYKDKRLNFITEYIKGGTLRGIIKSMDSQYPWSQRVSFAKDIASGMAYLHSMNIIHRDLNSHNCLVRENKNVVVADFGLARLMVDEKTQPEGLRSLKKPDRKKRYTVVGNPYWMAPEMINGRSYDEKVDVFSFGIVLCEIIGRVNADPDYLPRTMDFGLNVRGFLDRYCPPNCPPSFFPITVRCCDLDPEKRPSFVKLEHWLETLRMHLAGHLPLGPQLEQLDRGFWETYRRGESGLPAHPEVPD
Assay [9] addresses Serine/threonine-protein kinase SIK2 (Homo sapiens, UniProt Q9H0K1).

Activity calls are given as the source filed them. For most assays here, no stated cut-off is given here; in the data, actives have a measured Kd and inactives only a lower limit. A value given as a limit tells only on which side of the number the result lay.

Cyclin-dependent kinase 7, sequence (P50613 whole entry, canonical isoform): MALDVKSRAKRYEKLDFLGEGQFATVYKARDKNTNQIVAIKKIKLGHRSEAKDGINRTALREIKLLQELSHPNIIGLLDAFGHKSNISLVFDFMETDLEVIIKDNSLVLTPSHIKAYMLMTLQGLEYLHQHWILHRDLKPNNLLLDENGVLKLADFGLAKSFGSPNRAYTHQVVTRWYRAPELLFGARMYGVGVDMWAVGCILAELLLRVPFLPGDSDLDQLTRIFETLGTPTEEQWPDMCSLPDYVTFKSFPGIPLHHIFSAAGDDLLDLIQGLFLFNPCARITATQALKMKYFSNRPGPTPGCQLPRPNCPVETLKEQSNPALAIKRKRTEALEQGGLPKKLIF
Casein kinase I isoform gamma-1, sequence (Q9HCP0 whole entry, the tested form may be a part, canonical isoform): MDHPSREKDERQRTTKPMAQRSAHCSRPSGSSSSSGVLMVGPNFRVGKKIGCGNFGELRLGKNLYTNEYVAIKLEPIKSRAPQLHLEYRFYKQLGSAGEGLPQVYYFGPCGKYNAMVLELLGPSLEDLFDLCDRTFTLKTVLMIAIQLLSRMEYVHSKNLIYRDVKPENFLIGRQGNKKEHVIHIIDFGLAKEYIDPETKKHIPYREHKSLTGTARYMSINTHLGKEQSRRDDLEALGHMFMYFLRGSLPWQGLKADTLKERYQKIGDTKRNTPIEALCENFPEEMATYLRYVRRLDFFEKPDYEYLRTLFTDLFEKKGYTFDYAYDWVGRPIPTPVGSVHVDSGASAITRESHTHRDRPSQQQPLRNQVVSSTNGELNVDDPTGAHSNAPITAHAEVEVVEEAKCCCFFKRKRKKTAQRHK
Serine/threonine-protein kinase SIK2, sequence (Q9H0K1 whole entry): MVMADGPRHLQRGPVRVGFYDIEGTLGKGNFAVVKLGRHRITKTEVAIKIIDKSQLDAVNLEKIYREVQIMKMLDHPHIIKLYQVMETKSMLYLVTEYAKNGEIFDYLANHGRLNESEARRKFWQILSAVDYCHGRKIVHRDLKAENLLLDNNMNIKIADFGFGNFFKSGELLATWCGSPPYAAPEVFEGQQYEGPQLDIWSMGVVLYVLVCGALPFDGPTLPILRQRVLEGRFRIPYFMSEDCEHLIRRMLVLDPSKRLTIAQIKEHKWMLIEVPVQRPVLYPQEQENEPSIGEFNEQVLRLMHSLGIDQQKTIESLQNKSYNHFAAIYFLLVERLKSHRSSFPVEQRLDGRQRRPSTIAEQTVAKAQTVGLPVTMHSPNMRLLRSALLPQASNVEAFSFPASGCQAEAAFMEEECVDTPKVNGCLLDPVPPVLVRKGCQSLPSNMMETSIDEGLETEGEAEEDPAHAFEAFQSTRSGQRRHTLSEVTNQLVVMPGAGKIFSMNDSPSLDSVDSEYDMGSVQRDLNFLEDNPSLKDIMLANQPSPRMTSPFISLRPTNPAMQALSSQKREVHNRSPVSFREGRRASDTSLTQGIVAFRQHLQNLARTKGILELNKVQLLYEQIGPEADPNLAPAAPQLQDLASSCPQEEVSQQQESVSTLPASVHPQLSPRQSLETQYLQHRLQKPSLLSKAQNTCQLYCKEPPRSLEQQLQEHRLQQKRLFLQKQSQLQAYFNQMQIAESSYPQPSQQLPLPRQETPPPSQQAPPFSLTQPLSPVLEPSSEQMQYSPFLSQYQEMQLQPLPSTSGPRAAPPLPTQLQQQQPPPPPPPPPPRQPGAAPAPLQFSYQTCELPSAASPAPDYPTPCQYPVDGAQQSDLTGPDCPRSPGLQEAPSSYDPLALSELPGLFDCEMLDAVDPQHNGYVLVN
Epithelial discoidin domain-containing receptor 1, sequence (Q08345 whole entry, the tested form may be a part): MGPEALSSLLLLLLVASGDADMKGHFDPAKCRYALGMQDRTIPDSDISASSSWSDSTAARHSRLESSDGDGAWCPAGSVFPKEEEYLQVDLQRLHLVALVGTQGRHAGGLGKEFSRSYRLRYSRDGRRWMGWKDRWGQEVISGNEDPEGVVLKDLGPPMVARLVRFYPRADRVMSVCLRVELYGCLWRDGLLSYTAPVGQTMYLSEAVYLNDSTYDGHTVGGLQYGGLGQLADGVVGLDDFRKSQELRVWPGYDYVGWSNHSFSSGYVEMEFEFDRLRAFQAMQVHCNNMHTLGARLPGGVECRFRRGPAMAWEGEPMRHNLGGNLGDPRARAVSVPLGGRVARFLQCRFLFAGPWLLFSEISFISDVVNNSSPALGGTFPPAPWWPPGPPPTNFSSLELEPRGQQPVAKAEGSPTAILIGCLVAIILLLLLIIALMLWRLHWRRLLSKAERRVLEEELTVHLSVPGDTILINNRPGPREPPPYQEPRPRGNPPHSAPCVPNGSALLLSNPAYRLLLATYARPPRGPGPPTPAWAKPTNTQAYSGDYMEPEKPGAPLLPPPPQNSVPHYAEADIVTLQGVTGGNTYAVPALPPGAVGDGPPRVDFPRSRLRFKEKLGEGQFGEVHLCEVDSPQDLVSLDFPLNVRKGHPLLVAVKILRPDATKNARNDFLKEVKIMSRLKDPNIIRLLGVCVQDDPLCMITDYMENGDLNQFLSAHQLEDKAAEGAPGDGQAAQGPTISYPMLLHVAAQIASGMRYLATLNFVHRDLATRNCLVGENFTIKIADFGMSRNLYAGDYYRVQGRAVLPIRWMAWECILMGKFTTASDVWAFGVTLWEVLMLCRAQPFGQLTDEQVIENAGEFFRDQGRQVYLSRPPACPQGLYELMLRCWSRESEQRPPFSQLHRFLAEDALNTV
Bone morphogenetic protein receptor type-1B, sequence (O00238 whole entry): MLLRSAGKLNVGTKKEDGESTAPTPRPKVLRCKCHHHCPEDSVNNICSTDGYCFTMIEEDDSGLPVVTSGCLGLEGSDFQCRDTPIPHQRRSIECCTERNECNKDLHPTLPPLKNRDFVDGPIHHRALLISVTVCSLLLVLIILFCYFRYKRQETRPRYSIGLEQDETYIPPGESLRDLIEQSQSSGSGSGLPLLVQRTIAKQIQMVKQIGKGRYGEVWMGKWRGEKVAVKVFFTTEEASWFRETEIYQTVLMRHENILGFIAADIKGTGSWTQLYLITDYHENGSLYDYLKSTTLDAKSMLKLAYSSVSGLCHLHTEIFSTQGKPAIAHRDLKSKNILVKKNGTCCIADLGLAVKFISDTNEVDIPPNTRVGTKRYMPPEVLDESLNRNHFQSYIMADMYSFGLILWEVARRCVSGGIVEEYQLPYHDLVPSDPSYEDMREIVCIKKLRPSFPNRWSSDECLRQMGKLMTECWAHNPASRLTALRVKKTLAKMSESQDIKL

As usually defined, the Kd is the equilibrium constant for the complex coming apart. With `COc1cc(F)c(F)c(Nc2ccc(I)cc2F)c1NS(=O)(=O)C1(C[C@H](O)CO)CC1` [REFAMETINIB], the Kd (in [1]; at Activin receptor type-1B; in [2]; in assay [3]; in assay [4]; in assay [5]) was > 30 µM (inactive) throughout. For the same molecule, the Kd (in [6]; in assay [7]; in assay [8]; at LIM domain kinase 1; in assay [9]) was > 30 µM (inactive) in each case.

With `COc1cc2ncnc3c2cc1OCCCCCN(C)Cc1ccc(Br)cc1N3` [JNJ-26483327], the Kd (in [1]; on Activin receptor type-1B; in assay [2]; in [3]; in assay [4]; in assay [5]) was > 30 µM (inactive) in each case. For the same molecule, the Kd (in assay [6]; in [7]; in assay [8]; at LIM domain kinase 1; in assay [9]) was > 30 µM (inactive) in each case.

For the molecule `C=CC(=O)Nc1cccc(Nc2nc(Nc3ccc(N4CCN(C(C)=O)CC4)cc3OC)ncc2C(F)(F)F)c1` [ROCILETINIB], the Kd (in assay [1]; at Activin receptor type-1B; in assay [2]; in [3]; in assay [4]; in assay [5]) was > 30 µM (inactive) throughout. The Kd (in [6]; in [7]; in assay [8]; on LIM domain kinase 1; in [9]) was > 30 µM (inactive) in each case.

Regarding `CCc1cc2c(cc1N1CCC(N3CCOCC3)CC1)C(C)(C)c1[nH]c3cc(C#N)ccc3c1C2=O` [ALECTINIB], the Kd (in assay [1]; at Activin receptor type-1B; in assay [2]; in [3]; in assay [4]; in assay [5]) was > 30 µM (inactive) each time. For the same molecule, the Kd (in [6]; in assay [7]; in assay [8]; at LIM domain kinase 1; in [9]) was > 30 µM (inactive) in each case.

For `COc1cc2ncnc(Nc3ccc(F)c(Cl)c3)c2cc1NC(=O)/C=C/CN1CCCCC1` [DACOMITINIB ANHYDROUS], the Kd (in [1]; at Activin receptor type-1B; in assay [2]; in assay [3]; in assay [4]; in assay [5]) was > 30 µM (inactive) each time. The Kd (in assay [6]; in [7]; in assay [8]; on LIM domain kinase 1; in assay [9]) was > 30 µM (inactive) in each case.

Consider `Cc1c(NC(=O)OC[C@@H]2COCCN2)cn2ncnc(Nc3ccc4c(cnn4Cc4cccc(F)c4)c3)c12` [AC-480], for which the Kd (in [1]; at Activin receptor type-1B; in assay [2]; in assay [3]; in [4]; in assay [5]) was > 30 µM (inactive) throughout. Further, the Kd (in assay [6]; in assay [7]; in [8]; at LIM domain kinase 1; in assay [9]) was > 30 µM (inactive) each time.

Turning to `Cc1cc(-c2cc(OC(=O)c3ccccc3)ccc2Cl)cc2nnc(Nc3ccc(OCCN4CCCC4)cc3)nc12` [TG100-801], the Kd (in [1]; on Activin receptor type-1B; in assay [2]; in assay [3]; in assay [4]; in [5]) was > 30 µM (inactive) throughout. The Kd in [6] is > 30 µM (inactive); in assay [7] it was 1.73 µM; in assay [8] it was > 30 µM (inactive); on LIM domain kinase 1, > 30 µM (inactive); in assay [9] it was > 30 µM (inactive).

On to `COc1cc2nccc(Oc3ccc(NC(=O)C4(C(=O)Nc5ccc(F)cc5)CC4)cc3)c2cc1OC` [CABOZANTINIB], for which the Kd (in assay [1]; at Activin receptor type-1B; in assay [2]; in assay [3]; in assay [4]; in assay [5]) was > 30 µM (inactive) in each case. Further, the Kd was > 30 µM (inactive) in assay [6]; 0.209 µM (active) in [7]; > 30 µM (inactive) in [8]; > 30 µM (inactive) on LIM domain kinase 1; > 30 µM (inactive) in assay [9].

`Cc1c(Cn2c(C)nc3c(C(=O)O)cc(N4CCOCC4)cc32)cccc1C(F)(F)F` [GSK-2636771]: the Kd (in [1]; on Activin receptor type-1B; in assay [2]; in [3]; in assay [4]; in assay [5]) was > 30 µM (inactive) throughout. In addition, the Kd (in assay [6]; in assay [7]; in assay [8]; on LIM domain kinase 1; in assay [9]) was > 30 µM (inactive) throughout.

`Cc1cc(Nc2nc(N[C@@H](C)c3ncc(F)cn3)ncc2Cl)n[nH]1` [AZD-1480]: the Kd in [1] is > 30 µM (inactive); at Activin receptor type-1B, > 30 µM (inactive); in assay [2], > 30 µM (inactive); in assay [3], > 30 µM (inactive); in [4], 0.942 µM; in assay [5] it was > 30 µM (inactive). Also, the Kd (in [6]; in assay [7]; in assay [8]; at LIM domain kinase 1; in assay [9]) was > 30 µM (inactive) each time.

As to `Cc1ccc(C(=O)Nc2ccc(Oc3cc4cnn(C)c4cc3-c3cn[nH]c3)c(F)c2)c(=O)n1-c1ccc(F)cc1` [MERESTINIB], the Kd (in assay [1]; at Activin receptor type-1B; in [2]; in assay [3]; in assay [4]; in assay [5]) was > 30 µM (inactive) each time. For the same molecule, the Kd in [6] was > 30 µM (inactive); in [7] it was 0.174 µM (active); in assay [8], > 30 µM (inactive); on LIM domain kinase 1 it was > 30 µM (inactive); in [9], > 30 µM (inactive).
